# Reference: article PMC3461998 (Angewandte Chemie (International ed. in English), 2012)
# Like-named read-outs stand apart in the source and are kept apart here.
# Columns and labels:
# [1] = target: T1, cholera toxin B subunit (CTB) (Vibrio cholerae serotype O1, UniProt P01556); test: biochemical; format: binding
# [2] = target: T2, tetanus toxin C fragment (TTC) (Clostridium tetani, UniProt P04958); details: read-out: KD Reported; cited from earlier work
# [3] = target: T2, tetanus toxin C fragment (TTC); test: biochemical; format: binding
# mouse IgG (mouse) = test: magnetic relaxation
# avidin = avidin (Gallus gallus, UniProt P02701); test: bMR nanosensor competition assay, avidin-biotin; format: binding; details: control study with avidin bMR nanosensors
# Sequence of avidin (P02701 25-152, species assumed): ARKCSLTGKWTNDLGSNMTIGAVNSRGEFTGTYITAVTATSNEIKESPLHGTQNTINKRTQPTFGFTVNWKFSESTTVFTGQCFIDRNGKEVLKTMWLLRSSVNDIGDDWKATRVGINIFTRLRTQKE
# [4] = target: T1, cholera toxin B subunit (CTB); details: read-out: KD Reported; cited from earlier work
# Concanavalin A = Concanavalin A (Canavalia ensiformis, UniProt P02866); details: read-out: KD Reported; cited from earlier work
# T2 sequence (P04958 865-1315 limits assumed): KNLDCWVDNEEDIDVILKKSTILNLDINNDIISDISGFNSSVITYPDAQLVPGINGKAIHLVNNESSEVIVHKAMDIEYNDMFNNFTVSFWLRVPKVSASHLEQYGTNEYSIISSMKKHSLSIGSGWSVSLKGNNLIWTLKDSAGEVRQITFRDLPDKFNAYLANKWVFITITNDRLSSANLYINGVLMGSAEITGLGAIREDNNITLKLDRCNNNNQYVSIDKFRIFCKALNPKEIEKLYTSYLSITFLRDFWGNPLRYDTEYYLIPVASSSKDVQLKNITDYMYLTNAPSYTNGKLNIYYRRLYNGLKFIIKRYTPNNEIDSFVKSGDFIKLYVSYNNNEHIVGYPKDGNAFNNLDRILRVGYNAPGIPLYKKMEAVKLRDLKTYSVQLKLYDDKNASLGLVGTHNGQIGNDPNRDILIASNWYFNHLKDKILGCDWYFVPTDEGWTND
# T1 sequence (P01556 22-124 limits assumed): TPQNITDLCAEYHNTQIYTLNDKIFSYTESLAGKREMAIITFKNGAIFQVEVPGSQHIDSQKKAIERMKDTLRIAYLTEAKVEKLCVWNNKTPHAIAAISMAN
compound,measurement,setting,value
"OC[C@H]1O[C@@H](O[C@H]2[C@H](O)[C@@H](O)C(O)O[C@@H]2CO)[C@H](O)[C@@H](O)[C@H]1O (mixture of isomers) [Lactose, lactose]",Kd,[1],88 µM
"COc1cccc2c1C(=O)c1c(O)c3c(c(O)c1C2=O)C[C@@](O)(C(=O)CO)C[C@@H]3O[C@H]1C[C@H](N)[C@H](O)[C@H](C)O1 [Doxorubicin, doxorubicin]",Kd,[2],9.4 µM
same,Kd,[3],4.1 µM
"O=C[C@H](O)[C@@H](O)[C@@H](O)[C@H](O)CO [Galactose, galactose]",Kd,[1],3.5 µM
"OC[C@H]1OC(O)[C@H](O)[C@@H](O)[C@@H]1O (stereo partly drawn) [Glucose, glucose]",Kd,[1],36 µM
"O=C(O)c1cc(O)c2c(c1)C(=O)c1cccc(O)c1C2=O [Rhein, rhein]",Kd,[3],33.6 µM
"OC[C@H]1O[C@@H]2O[C@H]3[C@H](O)[C@@H](O)[C@@H](O[C@H]4[C@H](O)[C@@H](O)[C@@H](O[C@H]5[C@H](O)[C@@H](O)[C@@H](O[C@H]6[C@H](O)[C@@H](O)[C@@H](O[C@H]7[C@H](O)[C@@H](O)[C@@H](O[C@H]8[C@H](O)[C@@H](O)[C@@H](O[C@H]1[C@H](O)[C@H]2O)O[C@@H]8CO)O[C@@H]7CO)O[C@@H]6CO)O[C@@H]5CO)O[C@@H]4CO)O[C@@H]3CO [β-Cyclodextrin, β-cyclodextrin]",Kd,[1],3.6 µM
Protein G (from UniProt P06654 34-417) (natural protein),Kd,mouse IgG (mouse),0.4 pM
bovine serum albumin,changes in magnetic relaxation,avidin,nominal changes
dextran,Kd,[4],14000 µM
same,Kd,Concanavalin A,0.09 µM
same,Kd,[1],4.9 µM
